Assay [1] deals with GGTase I (RhoA as substrate) (Homo sapiens, UniProt P49354+P53609). The assay is described as follows: GGTase I filter-binding assay, RhoA as substrate (library screens). The format is biochemical. As to conditions: compound 50 μM, DMSO = 100%, smaller = better inhibition. Here is the method: (§1) The pilot library was screened for inhibitors of protein geranylgeranyltransferase type I. Protein prenyltransferase assays were carried out by using filter binding. Two different substrates, RhoA and K-Ras4B, were used for the assay. RhoA ends with the CaaL motif and is an exclusive substrate for GGTase I, while K-Ras4B ends with the CaaX motif and is modified by both GGTase I and FTase.
(§2) In the assay, a fixed concentration of 100 μM was used and the results are plotted for the inhibition of RhoA (vertical axis) as well as for K-Ras4B (horizontal axis). […] They are 2,6-diaryl-N-tosyl-1,2,5,6-tetrahydropyridine-3-carboxylic acids, except P2-D5 that is missing an aryl substituent at C2.
The % activity of GGTase I was determined as follows: a working solution that contained each compound in DMSO at the concentration of 1 mM was prepared. The working solution was added to GGTase I reaction mixture so that the final concentration of the compound is 50 μM. GGTase I activity was assayed by incubating [^3H]GGPP with K-Ras4B or RhoA protein in the presence of GGTase I and examining radioactivity incorporated into the substrate protein by spotting onto a filter paper. After washing with TCA, ethanol and acetone, the radioactivity retained on the filter was determined by the use of a scintillation counter. GGTase I activity in the presence of DMSO was taken as a 100% value and the activity in the presence of the compound was shown as percent activity compared with the 100% value. […] For 6-aryl-4-mercapto-N-sulfonyl-piperidine-3-carboxylic acid 11 the 4-mercapto substituent appeared critical to endowing GGTase inhibitory activity. […] 4-Chlorobenzylthio substituent was the next best; 12 compounds out of 21 containing the 4-chlorobenzylthio moiety were active. […]
A collection of 138 heterocycles was screened for their ability to inhibit the activity of human GGTase-I to geranylgeranylate K-Ras4B or RhoA. […] After 30 min, the degree of incorporation of tritiated geranylgeranyl groups was measured using a scintillation counter.

Assay [2] concerns the target GGTase I (K-Ras4B as substrate) (Homo sapiens, UniProt P49354+P53609). The assay is described as follows: GGTase I filter-binding assay, K-Ras4B as substrate (library screens). The format is biochemical. To be noted: compound 50 μM; DMSO = 100%; smaller = better inhibition; 50 µM. The method, then:
as §1, §2
The % activity of GGTase I was determined as follows: a working solution that contained each compound in DMSO at the concentration of 1 mM was prepared. The working solution was added to GGTase I reaction mixture so that the final concentration of the compound is 50 μM. GGTase I activity was assayed by incubating [^3H]GGPP with K-Ras4B or RhoA protein in the presence of GGTase I and examining radioactivity incorporated into the substrate protein by spotting onto a filter paper. After washing with TCA, ethanol and acetone, the radioactivity retained on the filter was determined by the use of a scintillation counter. GGTase I activity in the presence of DMSO was taken as a 100% value and the activity in the presence of the compound was shown as percent activity compared with the 100% value. […] For 6-aryl-4-mercapto-N-sulfonyl-piperidine-3-carboxylic acid 11 the 4-mercapto substituent appeared critical to endowing GGTase inhibitory activity. […] 4-Chlorobenzylthio substituent was the next best; 12 compounds out of 21 containing the 4-chlorobenzylthio moiety were active. 4-Benzylthio substituent was also good; 7 piperidines out of 21 bearing 4-benzylthio group were active. […] 19 imines (C15>C12=C41>C40>C01=C11>C05=C10=C30=C35=C37=C38>C02, C03, C04, C06, C39=C43) out of 21 appeared in the GGTIs. […] This corresponds to 47 6-aryl-4-mercapto-N-sulfonyl-piperidine-3-carboxylic acids out of 357 compounds.
A collection of 138 heterocycles was screened for their ability to inhibit the activity of human GGTase-I to geranylgeranylate K-Ras4B or RhoA. Purified GGTase-I was incubated with its substrate protein K-Ras4B or RhoA, [^3H]GGPP, and the 138 compounds. After 30 min, the degree of incorporation of tritiated geranylgeranyl groups was measured using a scintillation counter.

Each structure is given as a SMILES string.

On to `Cc1ccccc1S(=O)(=O)N1C(c2ccc(Cl)cc2)CC=C(C(=O)O)[C@@H]1c1ccccc1` (stereo partly shown) [drawing 39], for which the “% activity of GGTase I for RhoA in the presence of the compound” value in assay [1] turned out to be 12.4%. Besides, in assay [2], the “% activity of GGTase I for K-Ras4B in the presence of the compound” value is on record as 15.6%.
As for `Cc1ccccc1S(=O)(=O)N1C(c2ccc(Cl)cc2)CC=C(C(=O)O)[C@@H]1c1ccccc1` (stereo partly shown) [drawing 42], the “% activity of GGTase I for RhoA in the presence of the compound” value in assay [1] was 3.0%. In assay [2], the “% activity of GGTase I for K-Ras4B in the presence of the compound” value is on record as 5.4%.

Source of the values: patent US8815935B2, “Inhibitors of protein prenyltransferases” (The Regents of the University of California, priority 2008, dated 2014).
